Read-outs that look alike come from different tables or passages of the source.
Columns and labels:
[1] = tested on: 4th instar larvae of Spilarctia obliqua; test: feeding deterrency (antifeedant) bioassay, diet-mix method; format: in vivo, Spilarctia obliqua (Bihar hairy caterpillar); settings: for % feeding deterrency: diet-mix, fecal pellets after 24 hours; for antifeedant activity (in words): bioassay studies
Description: (§1) The compound having formula (1) was evaluated as feeding deterrent and growth inhibitor against 4th in star larvae of spilarctia obliqua (Bihar hairy caterpillar). This insect attacks more than twenty cash crops like urd, moong, arhar, mint and coleus etc. Several synthetic insecticides like quinalphos, Phosphamidon and synthetic pyrethroids are commercially used to manage this insect pest. But, the insect is developing resistance towards some of these insecticides. Therefore, it has now become imperative to search for new ecologically safe, environmentally sound and non-toxic chemicals to manage this pest.
(§2) With compound having formula (1) insect feeding deterrency and growth inhibition was tested by diet-mix method. In this method, 4-(p-methoxyphenyl)-2-aminobutane the compound having formula (1) was dissolved in acetone to make various concentrations ranging from 1000 to 5000 ppm. Test solution was mixed in the artificial diet of the insect so that each gram of diet contained 60-300 μg of the compound (1). 4th in star larva (newly molted) starved four hours, was weighed and released on treated artificial diet in thirty replications. In control, only solvent acetone was mixed and azadirachtin at 1000 ppm concentration was taken as standard for feeding bioassay. After 24 hours, number of fecal pellets produced were counted, and the data were analyzed for % feeding deterrency. Some experiments were continued for next 24 hours and weights of the larva were taken daily. After 3 days, experiment was discontinued and weight gain or loss was analyzed for % growth inhibition.
Diflubenzuron at 5 ppm was taken as a standard in case of growth inhibitory assay. The test result of compound having formula (1) in terms of its feeding deterrency and growth inhibition as compared to standards azadirachtin and diflubenzuron are given in table 1.

[2] = exposure to sun light; cited from earlier work
[3] = tested on: 4th instar larvae of Spilarctia obliqua; test: growth inhibition bioassay, diet-mix method; format: in vivo, Spilarctia obliqua (Bihar hairy caterpillar); settings: bioassay studies
Description: as §1
as §2, with “In control, only solvent acetone was mixed and azadirachtin at 1000 ppm concentration was taken as standard for feeding bioassay.” left out, “Some experiments were continued for next 24 hours and weights of the larva were taken daily.” left out, “inhibition. […]” for “inhibition.”

[4] = sensitivity to light (UV and sunlight); format: physicochemical; settings: both UV and sunlight

C/C=C(\C)C(=O)O[C@H]1C[C@@H](OC(C)=O)[C@@]2(C(=O)OC)CO[C@H]3[C@@H](O)[C@@](C)([C@]45O[C@@]4(C)[C@H]4C[C@@H]5O[C@@H]5OC=C[C@@]54O)[C@H]4[C@]1(CO[C@]4(O)C(=O)OC)[C@@H]32 [Azadirachtin, reference compound]
% feeding deterrency ([1]; 1000 ppm): 100.0% | sensitivity to light [2]: photosensitive

COc1ccc(CCC(C)N)cc1 (stereo not drawn) [Compound 1, 4-(p-methoxyphenyl)-2-amino butane]
% feeding deterrency ([1]; 1000 ppm): 32.0% | % feeding deterrency ([1]; 2000 ppm): 40.0% | % feeding deterrency ([1]; 3000 ppm): 64.0% | % feeding deterrency ([1]; 4000 ppm): 82.0% | % feeding deterrency ([1]; 5000 ppm): 100.0% | antifeedant activity (in words) [1]: significant activity | growth inhibition activity (in words) [3]: significant activity | sensitivity to light [4]: not sensitive to light

CC(O)CCc1ccc(O)cc1 (stereo not drawn) [compound (2), 4-(p-hydroxyphenyl)-butan-2-ol]
antifeedant activity (in words) [1]: not found to be active | growth inhibition activity (in words) [3]: not found to be active

Reference: US6441205B1, “Synthetic precursors to 4-(P-methoxyphenyl)-2-amino-butane” (Council of Scientific and Industrial Research, priority 2000, dated 2002)
